Reference: patent US20220267310A1, “QUINAZOLINE AND CINNOLINE DERIVATIVES AS DNA-PK INHIBITOR” (MEDSHINE DISCOVERY INC., priority 2019, published 2022)
Like-named read-outs stand apart in the source and are kept apart here.

Assays:
[1] = tested on: human head and neck cancer FaDu cell subcutaneous xenograft tumor; experiment: FaDu subcutaneous xenograft, mono and combination with radiotherapy; assay type: in vivo; conditions: for Tumor volume (mm^3), 3 days after administration: day 3; for Tumor volume (mm^3), 7 days after administration: day 7; for Tumor volume (mm^3), 10 days after administration: day 10; for Tumor volume (mm^3), 14 days after administration: day 14; for Tumor volume (mm^3), 17 days after administration: day 17; for Tumor volume (mm^3), 23 days after administration: day 23; for RTV (21th day) / T/C (%) (21th day) / TGI (%) (21th day) / Tumor volume (mm^3) (0th day) / Tumor volume (mm^3) (21th day): 50 mg/kg, PO
Description: Experiment purpose: The antitumor activity of the tested compound was evaluated in a nude mouse model of human head and neck cancer FaDu cell subcutaneous xenograft tumor
Experimental animals: Female BALB/c nude mice, 6-8 weeks old, weighing 17-23 grams; supplier: B&K Universal Group Limited
Human head and neck cancer FaDu cell (ATCC, Manassas. Virginiaite, item number: HTB-43) was cultured in vitro in a culture condition of EMEM medium with 10% fetal bovine serum, 100 U/mL penicillin and 100 μg/mL streptomycin, incubated at 37° C. and 5% CO2. Conventional digestive treatment passage was carried out using pancreatic enzyme—EDTA twice a week.
Each mouse was subcutaneously inoculated with 0.1 mL ([…]) FaDu cells at the right dorsal position, and when the average tumor volume reaches about 106 mm^3, randomization was used for initiating drug administration.
The tested compound was prepared as a 5 mg/mL clarified solution with 10% DMSO+50% polyethylene glycol 400+40% water as the solvent. Preparation was conducted every three days.
The experimental indicators refers to study whether tumor growth was inhibited, delayed, or cured. Tumor diameter was measured twice a week with a vernier caliper. The calculation formula of the tumor volume was V=0.5a×b^2, and a and b represent the long diameter and short diameter of the tumor, respectively.
The antitumor efficacy of the compound was evaluated by TGI (%) or relative tumor proliferation rate T/C (%). TGI (%) reflects the tumor growth inhibition rate. The calculation of TGI (%): TGI (%)=[1−(average tumor volume at the end of administration of a certain treatment group−average tumor volume at the beginning of administration of the treatment group)/(average tumor volume at the end of treatment in solvent control group−average tumor volume at the beginning of treatment in solvent control group)]×control group.
Relative tumor proliferation rate T/C (%): the calculation formula was as follows: T/C %=[…] TRTV/CRTV group (TRTV: treatment group RTV: CRTV: negative control group RTV). According to results of tumor measurement. Relative Tumor Volume (RTV) was calculated by the formula RTV=Vt/V0, where V0 was the average tumor volume measured in group administration (i.e., d0), and Vt was the average tumor volume measured in a certain single measurement. TRTV and CRTV collect data on the same day.
Statistic analysis includes an average value and a standard error (SEM) of tumor volume at each time point for each group. […] If there was no significant difference in F value, Dunnet (2-sided) method was applied to analysis. All data were analyzed using SPSS 17.0. P<0.05 was considered as having a significant difference.

[2] = Pharmacokinetic evaluation in mice, IV and PO; assay type: in vivo, Balb/c female mice; conditions: for Tlast / AUC(0-t) / C0 / clearance / half-life / Vd / Cmax / Tmax: mouse plasma; for bioavailability / AUC(0-t) / C0 / clearance / half-life / Vd / Cmax / Tmax: female, Balb/c; for bioavailability: plasma, mouse; for Vd: read-out: Vdss; for Tmax: read-out: Tmax
Method in brief: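 Female Balb/c mice (18–20 g) dosed IV at 1 or 2 mg/kg or PO at 2 or 10 mg/kg, compound in 10% DMSO/50% PEG400/40% water. Plasma levels by LC-MS/MS over time; non-compartmental parameters (C0, Cmax, Tmax, T1/2, Vdss, Cl, AUC0-last, bioavailability) derived.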

[3] = 50 mg/kg + 2 Gy, average ± SEM, n = 8
[4] = 50 mg/kg alone, average ± SEM, n = 8
[5] = QD, alone, average ± SEM, n = 8

SMILES: COc1ccc([C@@H](O)c2cc(-c3nncc4cc(N5CCOCC5)ccc34)c(F)cc2Cl)nn1 [Embodiment M3814, reference compound]
- Tumor volume (mm^3), 3 days after administration [1, 3]: 168 ± 10 mm^3
- Tumor volume (mm^3), 7 days after administration [1, 3]: 106 ± 19 mm^3
- Tumor volume (mm^3), 10 days after administration [1, 3]: 68 ± 16 mm^3
- Tumor volume (mm^3), 14 days after administration [1, 3]: 25 ± 9 mm^3
- Tumor volume (mm^3), 17 days after administration [1, 3]: 12 ± 4 mm^3
- Tumor volume (mm^3), 23 days after administration [1, 3]: 1 ± 1 mm^3
- Tumor volume (mm^3), 28 days after administration ([1]; 50 mg/kg + 2 Gy, day 28, average ± SEM, n = 8): 1 ± 1 mm^3
- Tumor volume (mm^3), 31 days after administration ([1]; 50 mg/kg + 2 Gy, day 31, average ± SEM, n = 8): 0 ± 0 mm^3
- Tumor volume (mm^3), 35 days after administration ([1]; 50 mg/kg + 2 Gy, day 35, average ± SEM, n = 8): 0 ± 0 mm^3
- Tumor volume (mm^3), 42 days after administration ([1]; 50 mg/kg + 2 Gy, day 42, average ± SEM, n = 8): 0 ± 0 mm^3
- Tumor volume (mm^3), 49 days after administration ([1]; 50 mg/kg + 2 Gy, day 49, average ± SEM, n = 8): 0 ± 0 mm^3
- Tumor volume (mm^3), 56 days after administration ([1]; 50 mg/kg + 2 Gy, day 56, average ± SEM, n = 8): 0 ± 0 mm^3
- Tumor volume (mm^3), 63 days after administration ([1]; 50 mg/kg + 2 Gy, day 63, average ± SEM, n = 8): 0 ± 0 mm^3
- Tumor volume (mm^3), 70 days after administration ([1]; 50 mg/kg + 2 Gy, day 70, average ± SEM, n = 8): 0 ± 0 mm^3
- animal death or euthanasia during the study ([1]; 50 mg/kg alone, one animal of the group): found dead on day 23 after group administration
- Tumor volume (mm^3), 3 days after administration [1, 4]: 167 ± 20 mm^3
- Tumor volume (mm^3), 7 days after administration [1, 4]: 322 ± 35 mm^3
- Tumor volume (mm^3), 10 days after administration [1, 4]: 502 ± 48 mm^3
- Tumor volume (mm^3), 14 days after administration [1, 4]: 752 ± 64 mm^3
- Tumor volume (mm^3), 17 days after administration [1, 4]: 997 ± 109 mm^3
- Tumor volume (mm^3), 23 days after administration [1, 4]: 1831 ± 254 mm^3
- RTV (21th day) ([1]; QD + radiotherapy 2 Gy): 0.03 ± 0.02
- T/C (%) (21th day) ([1]; QD + radiotherapy 2 Gy): 0.24%
- TGI (%) (21th day) ([1]; QD + radiotherapy 2 Gy): 108.46%
- Tumor volume (mm^3) (0th day) ([1]; QD + radiotherapy 2 Gy, 5-day radiotherapy, 2-day withdrawal, average ± SEM, n = 8): 106 ± 5 mm^3
- Tumor volume (mm^3) (21th day) ([1]; QD + radiotherapy 2 Gy, average ± SEM, n = 8): 3 ± 2 mm^3
- RTV (21th day) ([1]; QD, alone): 12.35 ± 1.10
- T/C (%) (21th day) ([1]; QD, alone): 99.60%
- TGI (%) (21th day) ([1]; QD, alone): −0.43%
- Tumor volume (mm^3) (0th day) [1, 5]: 106 ± 5 mm^3
- Tumor volume (mm^3) (21th day) [1, 5]: 1320 ± 174 mm^3
- Tlast ([2]; IV(1 mg/kg)): 6.00 h
- Tlast ([2]; IV(2 mg/kg)): 4.00 h
- Tlast ([2]; PO(2 mg/kg)): 8.00 h
- Tlast ([2]; PO(10 mg/kg)): 8.00 h
- bioavailability ([2]; PO(2 mg/kg)): 25.8%
- bioavailability ([2]; PO(10 mg/kg)): 54%
- AUC(0-t) ([2]; IV(1 mg/kg)): 1.33 µM·h
- C0 ([2]; IV(1 mg/kg)): 1970 nM
- clearance ([2]; IV(1 mg/kg)): 25.9 mL/min/kg
- half-life ([2]; IV(1 mg/kg)): 42.4 min
- Vd ([2]; IV(1 mg/kg)): 1.34 L/kg
- AUC(0-t) ([2]; IV(2 mg/kg)): 1.41 µM·h
- C0 ([2]; IV(2 mg/kg)): 2160 nM
- clearance ([2]; IV(2 mg/kg)): 49 mL/min/kg
- half-life ([2]; IV(2 mg/kg)): 28.7 min
- Vd ([2]; IV(2 mg/kg)): 1.9 L/kg
- AUC(0-t) ([2]; PO(2 mg/kg)): 0.688 µM·h
- Cmax ([2]; PO(2 mg/kg)): 580 nM
- half-life ([2]; PO(2 mg/kg)): 128 min
- Tmax ([2]; PO(2 mg/kg)): 15 min
- AUC(0-t) ([2]; PO(10 mg/kg)): 3.73 µM·h
- Cmax ([2]; PO(10 mg/kg)): 2060 nM
- half-life ([2]; PO(10 mg/kg)): 85.8 min
- Tmax ([2]; PO(10 mg/kg)): 30 min
